The values below come from patent publication US10144742B2 (Millennium Pharmaceuticals, Inc., priority 2014, dated 2018).

Where two headings read alike, the source gives them in different places.

The target in assay [1] is hNAMPT protein (Homo sapiens (Human), UniProt P43490). Briefly: NAMPT enzyme assay (TR-FRET/HTRF, BodiPY ligand, anti 6His-Tb). Type of assay: binding. As to conditions: for IC50: NAMPT IC50 range class, read-out: IC50; for inhibition at 1 µM: read-out: Percent Inhibition. In short, it runs like this: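 TR-FRET binding assay in which His-tagged human NAMPT with anti-6His-Tb is displaced by compound from a BodiPY ligand, incubated 1 h at rt in the dark. Excitation was at 320 nm, with the 520/486 nm emission ratio read. IC50 was fitted from inhibition relative to DMSO controls.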
hNAMPT protein, sequence (P43490 whole entry): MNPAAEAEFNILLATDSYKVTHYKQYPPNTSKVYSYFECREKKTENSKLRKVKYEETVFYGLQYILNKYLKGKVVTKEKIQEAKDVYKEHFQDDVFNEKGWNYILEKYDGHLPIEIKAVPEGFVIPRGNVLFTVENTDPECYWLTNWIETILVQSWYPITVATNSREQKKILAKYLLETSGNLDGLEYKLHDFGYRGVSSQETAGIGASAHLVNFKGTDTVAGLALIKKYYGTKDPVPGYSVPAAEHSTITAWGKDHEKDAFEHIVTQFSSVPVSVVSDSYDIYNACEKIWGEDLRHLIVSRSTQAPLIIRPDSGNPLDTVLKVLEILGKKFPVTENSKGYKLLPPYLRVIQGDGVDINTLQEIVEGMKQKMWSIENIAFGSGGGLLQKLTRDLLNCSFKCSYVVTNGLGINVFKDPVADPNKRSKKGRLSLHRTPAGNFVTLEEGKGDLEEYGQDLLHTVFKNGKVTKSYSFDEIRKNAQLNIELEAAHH

Assay [2] deals with PC3 cells. Briefly: PC3 growth inhibition (Cell-titer glo, 72 hours). The class given is cell-based. To be noted: Homo sapiens, PC-3, PC3 cells, 72 hours, Cell-titer glo, read-out: Percent Inhibition (PC3 growth inhibition); for inhibition at 1 µM: compound concentration 1 μM; for inhibition at 1.667 µM: compound concentration 1.667 μM. In short, it runs like this:
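PC3 cells in RPMI1640 seeded overnight at 37 °C, 5% CO2, then exposed to compound diluted in AIM serum-free medium for 72 h. Viability by CellTiter-Glo luminescence vs DMSO controls; single-concentration % remaining viability (1 μM or 1.667 μM), or GI50/LD50 from curves.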

On to `O=C(NCCCn1ccnc1)c1ccc2nc(-c3ccccc3)c(N3CCCCC3)nc2c1` [Compound I-166, N-[3-(1H-imidazol-1-yl)propyl]-2-phenyl-3-(piperidin-1-yl)quinoxaline-6-carboxamide], for which the IC50 in assay [1] lay within 2000 to 10000 nM. Besides, the inhibition at 1 µM worked out at 31% in assay [1] (compound concentration 1 μM) and 5% in assay [2].

Turning to `Cn1cc(-c2nc3cc(C(=O)NCCCn4ccnc4)ccc3nc2-c2ccccc2)cn1` [Compound I-167, N-[3-(1H-imidazol-1-yl)propyl]-3-(1-methyl-1H-pyrazol-4-yl)-2-phenylquinoxaline-6-carboxamide], the 50% inhibitory concentration (IC50) in assay [1] was in the range of 2000 to 10000 nM. Also, the inhibition at 1 µM in assay [1] (compound concentration 1 μM) was determined as 24%; in assay [2] it was 1%.

On to `CC(=O)N1CCN(c2nc3cc(C(=O)NCCCn4ccnc4)ccc3nc2-c2ccccc2)CC1` [Compound I-168, 3-(4-Acetylpiperazin-1-yl)-N-[3-(1H-imidazol-1-yl)propyl]-2-phenylquinoxaline-6-carboxamide], for which the IC50 in assay [1] was 100 to 500 nM. The inhibition at 1 µM is 84% in assay [1] (compound concentration 1 μM) and 1% in assay [2].

Turning to `O=C(NCCc1ccccn1)c1ccc2nc(-c3ccc(F)cc3)c(-c3ccc(F)cc3)nc2c1` [Compound I-169, 2,3-bis(4-fluorophenyl)-N-[2-(pyridin-2-yl)ethyl]quinoxaline-6-carboxamide], the IC50 in assay [1] was 1000 to 2000 nM. Moreover, the inhibition at 1 µM in assay [1] (compound concentration 1 μM) turned out to be 36%; in assay [2] it was 93%.

As to `O=C(NCc1ccc2nccn2c1)c1ccc2nc(N3CCCCC3)c(-c3ccc(F)cc3)nc2c1` [Compound I-170], in assay [1], the IC50 was less than 100 nM. In assay [1] (compound concentration 1 μM), the inhibition at 1 µM was found to be 98%. In addition, in assay [2], the inhibition at 1.667 µM is 2%.

`CCOC(=O)CCc1ccc(-c2nc3cc(C(=O)NCCCn4ccnc4)ccc3nc2-c2ccccc2)cc1` [Compound I-171, ethyl 3-[4-(7-{[3-(1H-imidazol-1-yl)propyl]carbamoyl}-3-phenylquinoxalin-2-yl)phenyl]propanoate]: the 50% inhibitory concentration (IC50) in assay [1] was 2000 to 10000 nM. Also, the inhibition at 1 µM in assay [1] (compound concentration 1 μM) was determined as 27%; in assay [2], 95%.

In the case of `COC1CN(c2nc3ccc(C(=O)NCCCc4ncc[nH]4)cc3nc2-c2ccc(F)cc2)C1` [Compound I-172, 3-(4-fluorophenyl)-N-[3-(1H-imidazol-2-yl)propyl]-2-(3-methoxyazetidin-1-yl)quinoxaline-6-carboxamide], in assay [1], the IC50 was less than 100 nM. Moreover, the inhibition at 1 µM in assay [1] (compound concentration 1 μM) is greater than 99%. In addition, in assay [2], the inhibition at 1.667 µM is 2%.

With `O=C(NCCn1ccnc1)c1ccc2nc(N3CCC(C4CCNCC4)CC3)c(-c3ccccc3)nc2c1` [Compound I-173, 2-(4,4′-bipiperidin-1-yl)-N-[2-(1H-imidazol-1-yl)ethyl]-3-phenylquinoxaline-6-carboxamide], in assay [1], the IC50 is 100 to 500 nM. Further, the inhibition at 1 µM in assay [1] (compound concentration 1 μM) was 83%; in assay [2], -1%.

With `O=C(NCCCn1ccnc1)c1ccc2nc(-c3ccccc3)c(-c3ccsc3)nc2c1` [Compound I-174, N-[3-(1H-imidazol-1-yl)propyl]-2-phenyl-3-(3-thienyl)quinoxaline-6-carboxamide], the IC50 in assay [1] is 100 to 500 nM. The inhibition at 1 µM in assay [1] (compound concentration 1 μM) was found to be 89%; in assay [2] it was 1%.

In the case of `O=C(NCCCn1ccnc1)c1ccc2nc(-c3ccccc3)c(N3CCC3)nc2c1` [Compound I-175, 3-(azetidin-1-yl)-N-[3-(1H-imidazol-1-yl)propyl]-2-phenylquinoxaline-6-carboxamide], in assay [1], the IC50 fell in the range of 2000 to 10000 nM. Further, the figures for the inhibition at 1 µM in assay [1] (compound concentration 1 μM) and in assay [2] were 20% and 95%, respectively.

On to `O=C(NCCCn1ccnc1)c1ccc2nc(-c3ccccc3)c(-c3cccnc3)nc2c1` [Compound I-176, N-[3-(1H-imidazol-1-yl)propyl]-2-phenyl-3-(pyridin-3-yl)quinoxaline-6-carboxamide], for which, in assay [1], the IC50 lay within 1000 to 2000 nM. For the same compound, the values for the inhibition at 1 µM in assay [1] (compound concentration 1 μM) and in assay [2] were 46% and 1%, respectively.

Take `Cn1cncc1CCNC(=O)c1ccc2nc(N3CCOCC3)c(-c3ccc(F)cc3)nc2c1` [Compound I-177, 3-(4-fluorophenyl)-N-[2-(1-methyl-1H-imidazol-5-yl)ethyl]-2-(morpholin-4-yl)quinoxaline-6-carboxamide]: the IC50 in assay [1] fell in the range of 100 to 500 nM. Moreover, the inhibition at 1 µM in assay [1] (compound concentration 1 μM) turned out to be 77%. Besides, the inhibition at 1.667 µM in assay [2] was 2%.

Consider `O=C(NCCCc1ncc[nH]1)c1ccc2nc(-c3ccc(F)cc3)c(-c3ccc(F)cc3)nc2c1` [Compound I-178, 2,3-bis(4-fluorophenyl)-N-[3-(1H-imidazol-2-yl)propyl]quinoxaline-6-carboxamide], for which the concentration for half-maximal inhibition (IC50) in assay [1] was less than 100 nM. Besides, in assay [1] (compound concentration 1 μM), the inhibition at 1 µM stood at 97%. Moreover, the inhibition at 1.667 µM in assay [2] amounted to 2%.

`Cn1cccc1-c1nc2ccc(C(=O)NCCCn3ccnc3)cc2nc1-c1ccccc1` [Compound I-179, N-[3-(1H-imidazol-1-yl)propyl]-2-(1-methyl-1H-pyrrol-2-yl)-3-phenylquinoxaline-6-carboxamide]: in assay [1], the IC50 is 500 to 1000 nM. Also, the inhibition at 1 µM was 57% in assay [1] (compound concentration 1 μM) and -7% in assay [2].

Consider `O=C(NCCCc1ccccn1)c1ccc2nc(-c3ccc(F)cc3)c(-c3ccc(F)cc3)nc2c1` [Compound I-180, 2,3-Bis(4-fluorophenyl)-N-[3-(pyridin-2-yl)propyl]quinoxaline-6-carboxamide], for which, in assay [1], the IC50 lay within 2000 to 10000 nM and the inhibition at 1 µM is 27%. In addition, the inhibition at 1 µM in assay [2] worked out at 102%.

As to `COc1cccc(-c2nc3ccc(C(=O)NCCc4cccnc4)cc3nc2-c2cccc(OC)c2)c1` [Compound I-181, 2,3-bis(3-methoxyphenyl)-N-[2-(pyridin-3-yl)ethyl]quinoxaline-6-carboxamide], the IC50 in assay [1] was less than 100 nM. Further, the inhibition at 1 µM in assay [1] (compound concentration 1 μM) was found to be 100%; in assay [2] it was 0%.

`CS(=O)(=O)c1cccc(-c2nc3ccc(C(=O)NCCCn4ccnc4)cc3nc2-c2ccccc2)c1` [Compound I-182, N-[3-(1H-imidazol-1-yl)propyl]-2-[3-(methylsulfonyl)phenyl]-3-phenylquinoxaline-6-carboxamide]: in assay [1], the IC50 lay in the range of 100 to 500 nM. Moreover, the inhibition at 1 µM in assay [1] (compound concentration 1 μM) is 83%; in assay [2] it was -7%.

Regarding `COc1cccc(-c2nc3cc(C(=O)NCCCc4ncc[nH]4)ccc3nc2N2CCCCC2)c1` [Compound I-183, N-[3-(1H-imidazol-2-yl)propyl]-3-(3-methoxyphenyl)-2-(piperidin-1-yl)quinoxaline-6-carboxamide], the concentration for half-maximal inhibition (IC50) in assay [1] was less than 100 nM. Further, the inhibition at 1 µM in assay [1] (compound concentration 1 μM) was greater than 99%. Moreover, the inhibition at 1.667 µM in assay [2] amounted to 2%.

With `O=C(NCCc1cnccn1)c1ccc2nc(-c3ccc(F)cc3)c(-c3ccc(F)cc3)nc2c1` [Compound I-184, 2,3-bis(4-fluorophenyl)-N-[2-(pyrazin-2-yl)ethyl]quinoxaline-6-carboxamide], the IC50 in assay [1] was 1000 to 2000 nM. Besides, the inhibition at 1 µM in assay [1] (compound concentration 1 μM) was 39%; in assay [2], 101%.

Regarding `COc1cccc(-c2nc3ccc(C(=O)NCCCn4ccnc4)cc3nc2-c2ccccc2)c1` [Compound I-187, N-[3-(1H-imidazol-1-yl)propyl]-2-(3-methoxyphenyl)-3-phenylquinoxaline-6-carboxamide], the IC50 in assay [1] lay within 100 to 500 nM. Besides, the figures for the inhibition at 1 µM in assay [1] (compound concentration 1 μM) and in assay [2] were 84% and -8%, respectively.
